In PubChem BioAssay (NCI):
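Dose response: 5 concentrations. Exposure: 48 h. Format: 96-well plates. Endpoint: linear interpolation; highest concentration if not reached. The concentration for full growth arrest is given as TGI.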

How the values were obtained:
Assay in all cases: NCI-60 cell line screen, 48 h
786-0 renal = tested on: 786-0 renal
A498 renal = tested on: A498 renal
A549 NSCLC = tested on: A549 NSCLC
ACHN renal = tested on: ACHN renal
BT-549 breast = tested on: BT-549 breast
CAKI-1 renal = tested on: CAKI-1 renal
CCRF-CEM leukemia = tested on: CCRF-CEM leukemia
COLO 205 colon = tested on: COLO 205 colon
DU-145 prostate = tested on: DU-145 prostate
EKVX NSCLC = tested on: EKVX NSCLC
HCC-2998 colon = tested on: HCC-2998 colon
HCT-116 colon = tested on: HCT-116 colon
HCT-15 colon = tested on: HCT-15 colon
HL-60(TB) leukemia = tested on: HL-60(TB) leukemia
HOP-92 NSCLC = tested on: HOP-92 NSCLC
HS 578T breast = tested on: HS 578T breast
HT29 colon = tested on: HT29 colon
IGROV1 ovarian = tested on: IGROV1 ovarian
KM12 colon = tested on: KM12 colon
LOX IMVI melanoma = tested on: LOX IMVI melanoma
M14 melanoma = tested on: M14 melanoma
MALME-3M melanoma = tested on: MALME-3M melanoma
MCF7 breast = tested on: MCF7 breast
MDA-MB-231 breast = tested on: MDA-MB-231 breast
MDA-MB-435 = tested on: MDA-MB-435
MDA-N = tested on: MDA-N
MOLT-4 leukemia = tested on: MOLT-4 leukemia
NCI-H226 lung = tested on: NCI-H226 lung
NCI-H23 lung = tested on: NCI-H23 lung
NCI-H460 lung = tested on: NCI-H460 lung
NCI-H522 lung = tested on: NCI-H522 lung
NCI/ADR-RES ovarian = tested on: NCI/ADR-RES ovarian
OVCAR-3 ovarian = tested on: OVCAR-3 ovarian
OVCAR-4 ovarian = tested on: OVCAR-4 ovarian
OVCAR-5 ovarian = tested on: OVCAR-5 ovarian
OVCAR-8 ovarian = tested on: OVCAR-8 ovarian
PC-3 prostate = tested on: PC-3 prostate
RPMI-8226 leukemia = tested on: RPMI-8226 leukemia
SF-268 CNS = tested on: SF-268 CNS
SF-295 CNS = tested on: SF-295 CNS
SF-539 CNS = tested on: SF-539 CNS
SK-MEL-2 melanoma = tested on: SK-MEL-2 melanoma
SK-MEL-28 melanoma = tested on: SK-MEL-28 melanoma
SK-MEL-5 melanoma = tested on: SK-MEL-5 melanoma
SK-OV-3 ovarian = tested on: SK-OV-3 ovarian
SN12C renal = tested on: SN12C renal
SNB-19 CNS = tested on: SNB-19 CNS
SNB-75 CNS = tested on: SNB-75 CNS
SW-620 colon = tested on: SW-620 colon
T-47D breast = tested on: T-47D breast
TK-10 renal = tested on: TK-10 renal
U251 CNS = tested on: U251 CNS
UACC-257 melanoma = tested on: UACC-257 melanoma
UACC-62 melanoma = tested on: UACC-62 melanoma
UO-31 renal = tested on: UO-31 renal
HOP-62 NSCLC = tested on: HOP-62 NSCLC
K-562 leukemia = tested on: K-562 leukemia
RXF 393 renal = tested on: RXF 393 renal
SR leukemia = tested on: SR leukemia

Measured: TGI

CCC12CCCN3CCc4c(n(c5ccccc45)C(O)(C(=O)OC)C1)C32 (centres undefined)
not listed: HOP-62 NSCLC | K-562 leukemia | RXF 393 renal | SR leukemia
> 100 µM: all other assays above

COc1cccc(C2c3cc4c(cc3OC(NNc3ccccc3)C2C)OCO4)c1O (centres undefined)
23.2 µM: 786-0 renal
10.5 µM: SF-295 CNS
20.4 µM: BT-549 breast
17.3 µM: TK-10 renal
32.4 µM: SNB-19 CNS
6.47 µM: HCC-2998 colon
28.2 µM: A498 renal
25.5 µM: IGROV1 ovarian | SW-620 colon
42.4 µM: SF-268 CNS
18.7 µM: U251 CNS
21.7 µM: CCRF-CEM leukemia
12.9 µM: HL-60(TB) leukemia
29.6 µM: NCI-H226 lung | RXF 393 renal
11.9 µM: K-562 leukemia
28 µM: NCI-H23 lung
27.5 µM: LOX IMVI melanoma
15.5 µM: ACHN renal | NCI-H460 lung
12 µM: HCT-15 colon
9.87 µM: SF-539 CNS
23.5 µM: MOLT-4 leukemia | SN12C renal
8.36 µM: OVCAR-3 ovarian
19.6 µM: MCF7 breast
22.1 µM: EKVX NSCLC
19.3 µM: M14 melanoma
18.9 µM: DU-145 prostate
8.14 µM: HOP-62 NSCLC
28.5 µM: HOP-92 NSCLC
8.59 µM: MDA-N
58.4 µM: SK-OV-3 ovarian
12.5 µM: MDA-MB-435
24.7 µM: SK-MEL-28 melanoma
17.9 µM: UACC-62 melanoma
23.3 µM: CAKI-1 renal | HT29 colon
20 µM: SK-MEL-5 melanoma
31.1 µM: T-47D breast
16.6 µM: UO-31 renal
21.1 µM: OVCAR-8 ovarian
18 µM: HCT-116 colon
19.2 µM: A549 NSCLC
6.28 µM: SR leukemia
34.5 µM: HS 578T breast
23.8 µM: COLO 205 colon
17.7 µM: UACC-257 melanoma
19.1 µM: MALME-3M melanoma | PC-3 prostate
27.9 µM: MDA-MB-231 breast
18.3 µM: KM12 colon
25.7 µM: SK-MEL-2 melanoma
14.4 µM: NCI-H522 lung
47.4 µM: SNB-75 CNS
22.6 µM: RPMI-8226 leukemia
27.1 µM: OVCAR-5 ovarian

O=C1c2ccccc2-c2c1c(-c1ccc(O)cc1O)nc1ccc3ccccc3c21
75.2 µM: HS 578T breast
not listed: HL-60(TB) leukemia | HOP-92 NSCLC | IGROV1 ovarian | LOX IMVI melanoma | NCI-H522 lung | OVCAR-3 ovarian | SK-MEL-5 melanoma | TK-10 renal | RXF 393 renal | SR leukemia
> 100 µM: all other assays above

C=CCNC(=O)N1CC(C)C(=O)Nc2ccccc21 (centres undefined)
not listed: NCI/ADR-RES ovarian | SNB-75 CNS | UACC-62 melanoma
> 100 µM: all other assays above

CC1(C)SC2C(NC(=O)C(C(=O)O)c3ccccc3)C(=O)N2C1C(=O)O (centres undefined)
not listed: A549 NSCLC | HCC-2998 colon | HOP-92 NSCLC | NCI-H460 lung | NCI-H522 lung | OVCAR-4 ovarian | SR leukemia
> 100 µM: all other assays above
